One assay concerns the target T1, human renin (Homo sapiens, UniProt P00797).
T1 construct: purchased National Institute for Biological Standards, London
T1 sequence (P00797 67-406): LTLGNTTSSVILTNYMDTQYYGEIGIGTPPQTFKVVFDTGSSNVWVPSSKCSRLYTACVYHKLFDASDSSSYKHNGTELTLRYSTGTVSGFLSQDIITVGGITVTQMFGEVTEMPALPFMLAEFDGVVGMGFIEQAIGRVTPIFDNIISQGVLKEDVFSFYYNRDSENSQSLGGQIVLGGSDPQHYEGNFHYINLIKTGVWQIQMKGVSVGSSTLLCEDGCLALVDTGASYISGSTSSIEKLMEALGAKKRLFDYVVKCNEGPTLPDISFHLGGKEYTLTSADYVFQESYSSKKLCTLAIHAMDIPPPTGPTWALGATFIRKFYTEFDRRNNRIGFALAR
The assay can be described thus: Human renin inhibition in vitro. Format: biochemical. The protocol:
Compounds of Formula I were evaluated as inhibitors of human renin in an in vitro assay, as follows: This human renin inhibition test has been previously described in detail [Papaioannou et al., Clinical and Experimental Hypertension, A7(9), 1243-1257 (1985)]. Human renin was obtained from the National Institute for Biological Standards, London. An incubation mixture was prepared containing the following components: in a total volume of 0.25 mL: 100 mM Tris-acetate buffer at pH 7.4, 25×10^−6 Goldblatt units of renin, 0.05 mL of plasma from human volunteers taking oral contraceptives, 6.0 mM Na-EDTA, 2.4 mM phenylmethyl sulfonyl fluoride, 1.5 mM 8-hydroxyquinoline, 0.4 mg/mL bovine serum albumin (BSA), and 0.024 mg/mL neomycin sulfate. This mixture was incubated for two hours at 37° C. in the presence or absence of renin inhibitors. The produced angiotensin I was determined by radioimmunoassay (New England Nuclear kit). Test compounds to be assayed were dissolved in DMSO and diluted with 100 mM Tris-acetate buffer at pH 7.4 containing 0.5% BSA to the appropriate concentration. The final concentration of organic solvent in the reaction mixture was less than 1%. Control incubations at 37° C. were used to correct for effects of organic solvent on renin activity.

The test system of assay [1] is Plasma Renin Activity (PRA). The assay can be described thus: Marmoset plasma renin activity (PRA) reduction on oral administration. The assay is classed as in vivo, Marmoset monkeys (Callithrix jacchus). The settings on record: IG; for inhibition at 0.1 mg/kg / inhibition at 1 mg/kg: Primates, po. Here is the method: The oral activity of renin inhibitor compounds was determined in vivo in Marmoset monkeys using the following procedure. Common Marmoset monkeys (Callithrix jacchus, Charles River, both sexes, body weight 300-400 g) were placed on a modified high-protein low-sodium diet (Purina, St. Louis, Mo.) for 1 week. About 24 hours prior to the administration of test compound, Lasix (5 mg/kg, im) was given. On the day of the test, the animal was anesthetized with isoflurane, body weight recorded, and a baseline blood sample taken. Then, test compound was given intragastrically and blood samples were taken in K-EDTA for plasma renin activity at appropriate time intervals. The PRA was determined by using the protocol outlined below. Results are expressed in terms of PRA at various time intervals both before and after compound administrations (“Pre” means pretreatment levels before compound administrations). Also included is percent inhibition (% INH from pretreatment levels).
I. Angiotensin I Generation
25 ml of the above reaction mixtures, in duplicate, were incubated at 37° C. or 0° C. for 2 hours.
II. Determination of Angiotensin I Concentrations
Angiotensin I (AI) concentrations were determined by radioimmunoassays with a commercial kit from NEN Co.
III. Calculation of Plasma Renin Activity
PRA (ng AI/ml/hr)=(AI at 37°−AI at 0°)/2 hr.

Where [2] appears, read: 0.1 MPK, 60 min, individual monkeys.
The mark [3] stands for this setting: 0.1 MPK, 60 min from dosing, individual monkeys.
[4] abbreviates: 0.1 MPK, 120 min, individual monkeys.
[5] abbreviates: 0.1 MPK, 120 min from dosing, individual monkeys.
Setting [6] is: 0.1 MPK, 240 min, individual monkeys.
Where [7] appears, read: 0.1 MPK, 240 min from dosing, individual monkeys.
[8] abbreviates: 0.1 MPK, Pre (pretreatment level), individual monkeys.
[9] abbreviates: 0.1 MPK, 60 min, individual monkeys, read-out: % INH (from pretreatment PRA).
Setting [10] is: 0.1 MPK, 240 min, individual monkeys, read-out: % INH (from pretreatment PRA).
Setting [11] is: 1 h, 0.1 MPK, 60 min, mean of monkeys A-C, read-out: MEAN % INH.
The mark [12] stands for this setting: 2 h, 0.1 MPK, 120 min, mean of monkeys A-C, read-out: MEAN % INH.
The mark [13] stands for this setting: 4 h, 0.1 MPK, 240 min, mean of monkeys A-C, read-out: MEAN % INH.

Structures are written as SMILES. Values joined by “and” are separate entries in the source; they are usually repeats but may differ in a detail not shown here. Equal values may be shown once. Read-outs that look alike come from different tables or passages of the source.

On to `C#CC[C@H](NC(=O)C(Cc1ccccc1)OC(=O)N(C)CCN(C)C)C(=O)NC(CC1CCCCC1)[C@@H](O)C(O)CC(C)C` (relative stereo) [Example 2, [1R*-[[[1R*-[[[1S,1R*-(Cyclohexylmethyl)-2S*,3R*-dihydroxy-5-methylhexyl]amino]carbonyl]-3-butynyl]amino]carbonyl]-2-phenylethyl)[2-(dimethylamino)ethyl]methylcarbamate], for which, on human renin, the midpoint of inhibition, the IC50, lay at 4 nM. Further, the “% INH (from pretreatment PRA)” value in assay [1] (setting [2]) was 71.5% and 81.2%; in assay [1] (setting [4]) it was 86.4% and 64.8% and 78.7%; in assay [1] (setting [6]) it was 57.2% and 58.2%. Also, the PRA was 3.9 ngAI/ml/hr and 33.9 ngAI/ml/hr and 12.7 ngAI/ml/hr in assay [1] (setting [3]); 5.7 ngAI/ml/hr and 41.8 ngAI/ml/hr and 14.4 ngAI/ml/hr in assay [1] (setting [5]); 28.5 ngAI/ml/hr and 18.1 ngAI/ml/hr and 49.7 ngAI/ml/hr in assay [1] (setting [7]); 42.2 ngAI/ml/hr and 118.8 ngAI/ml/hr and 67.5 ngAI/ml/hr in assay [1] (setting [8]). The inhibition at 0.1 mg/kg is 90.7% in assay [1] (setting [9]); 57.7% in assay [1] (setting [10]); 81.1 ± 6% in assay [1] (setting [11]); 76.6 ± 6% in assay [1] (setting [12]); 57.7% in assay [1] (setting [13]).
`C#CCC(NC(=O)C(Cc1ccccc1)OC(=O)N(C)CCN(C)C)C(=O)NC(CC1CCCCC1)[C@@H](O)C(O)CC(C)C` (stereo in doubt) [Example 3, [1R*-[[[1-[[[1S,1R*-(Cyclohexylmethyl)-2S*,3R*-dihydroxy-5-methylhexyl]amino]carbonyl]-3-butynyl]amino]carbonyl]-2-phenylethyl[]2-(dimethylamino)ethyl]methylcarbamate]: at human renin, the IC50 came out at 3 nM. In addition, the “% INH (from pretreatment PRA)” value in assay [1] (setting [2]) was 60.7% and 66.7%; in assay [1] (setting [4]) it was 46.9% and 60.3%; in assay [1] (setting [6]) it was 63.9% and 48%. Moreover, the PRA in assay [1] (setting [3]) is 42.1 ngAI/ml/hr and 29.8 ngAI/ml/hr and 27.8 ngAI/ml/hr; in assay [1] (setting [5]), 47.1 ngAI/ml/hr and 40.3 ngAI/ml/hr and 33.2 ngAI/ml/hr; in assay [1] (setting [7]) it was 36.1 ngAI/ml/hr and 38.1 ngAI/ml/hr and 39.5 ngAI/ml/hr; in assay [1] (setting [8]), 105.5 ngAI/ml/hr and 76 ngAI/ml/hr and 83.7 ngAI/ml/hr; in assay [1] (1.0 MPK, 60 min from dosing, individual monkeys), 0 ngAI/ml/hr; in assay [1] (1.0 MPK, 120 min from dosing, individual monkeys), 0 ngAI/ml/hr. Also, the PRA in assay [1] (1.0 MPK, 240 min from dosing, individual monkeys) is 0 ngAI/ml/hr; in assay [1] (1.0 MPK, Pre (pretreatment level), individual monkeys), 70.5 ngAI/ml/hr and 185.4 ngAI/ml/hr and 76.1 ngAI/ml/hr. The inhibition at 0.1 mg/kg in assay [1] (setting [9]) is 60.1%; in assay [1] (0.1 MPK, 120 min, individual monkeys, read-out: % INH (from pretreatment PRA)), 55.3%; in assay [1] (setting [10]), 56.8%; in assay [1] (setting [11]), 62.5 ± 2%; in assay [1] (setting [12]), 54.2 ± 4%; in assay [1] (setting [13]), 56.2 ± 5%. Also, the inhibition at 1 mg/kg in assay [1] (1.0 MPK, 60 min, individual monkeys, read-out: % INH (from pretreatment PRA)) came to 100%; in assay [1] (1.0 MPK, 120 min, individual monkeys, read-out: % INH (from pretreatment PRA)), 100%; in assay [1] (1.0 MPK, 240 min, individual monkeys, read-out: % INH (from pretreatment PRA)), 100%; in assay [1] (1.0 MPK, printed on the Pre line, read-out: % INH) it was 100%; in assay [1] (1 h, 1.0 MPK, 60 min, mean of monkeys, read-out: MEAN % INH), 100%; in assay [1] (2 h, 1.0 MPK, 120 min, mean of monkeys, read-out: MEAN % INH), 100%. The inhibition at 1 mg/kg in assay [1] (4 h, 1.0 MPK, 240 min, mean of monkeys, read-out: MEAN % INH) turned out to be 100%.
`C#CC[C@H](NC(=O)[C@@H](CC(=O)N(C)CCN(CC)CC)Cc1ccccc1)C(=O)N[C@@H](CC1CCCCC1)[C@@H](O)[C@@H](O)CC(C)C` [Example 4]: the IC50 on human renin was determined as 1 nM.

For orientation: IC50 means the concentration that gives 50% inhibition.

(Values after patent US6515025B2, “Use of ethynyl alanine amino diol compounds to inhibit enzymatic conversion of angiotensinogen to angiotensin I” (Pharmacia Corporation, priority 1991, dated 2003).)
